Test [1] is described as follows: Reaction kinetics by fluorescence at varying concentrations of sensor or CO2. To be noted: dependence for both (I1) and carbon dioxide. An excerpt:
The reaction kinetics were investigated with the same compounds of Formulae (I1) and (I1b) by measuring fluorescence at different time points using varying concentrations of either (I1) or carbon dioxide.

Test [2] has as its system HeLa cells. Put plainly: Cell imaging of CO2. It counts as cell-based. As to conditions: 5 μM for 10 minutes; ambient air or 5% CO2; imaged at different time points. As for the experimental part:
The selectivity of the compound (I4) was evaluated against common analytes in cells. HeLa cells were treated with compound (I4) [5 μM] for 10 minutes, followed by washing thrice to remove excess sensor. Then, as an exogenous CO2 model, the cells were incubated under ambient air or at 5% CO2 and imaged at different time points. […] In addition, time-dependent response of cells that were incubated under ambient conditions was attributed to basal levels of CO2 production by metabolic processes.

Data on 2 compounds can be found in patent US20250093315A1, “MOLECULAR SENSORS, METHOD AND KIT FOR THE DETECTION AND QUANTIFICATION OF CARBON DIOXIDE” (ETH Zurich, priority 2022, published 2025).

Structures are written as SMILES.

For `CCN(CC)c1ccc2c(NCc3ccccc3N=P(c3ccccc3)(c3ccccc3)c3ccccc3)cc(=O)oc2c1` [Compound (I1)], in test [1], the reaction order result was “first-order dependence”.

In the case of `CN(C)c1ccc2c(NCc3ccccc3N=P(c3ccccc3)(c3ccccc3)c3ccccc3)c3ccc(=[N+](C)C)cc-3oc2c1` [(I4)], the “fluorescent signal in cells” value in test [2] is “significant time-dependent fluorescent increase in the red channel and decrease in the green channel”.
